# What was measured:
# [1] = molecular target: norepinephrine transporter (hNET) (Homo sapiens, UniProt P23975); assay: [3H]NE uptake inhibition in COS-7 cells expressing hNET; format: cell-based
# [2] = molecular target: dopamine transporter (hDAT) (Homo sapiens, UniProt Q01959); assay: [3H]DA uptake inhibition in COS-7 cells expressing hDAT; format: cell-based
# Sequence of dopamine transporter (hDAT) (Q01959 whole entry): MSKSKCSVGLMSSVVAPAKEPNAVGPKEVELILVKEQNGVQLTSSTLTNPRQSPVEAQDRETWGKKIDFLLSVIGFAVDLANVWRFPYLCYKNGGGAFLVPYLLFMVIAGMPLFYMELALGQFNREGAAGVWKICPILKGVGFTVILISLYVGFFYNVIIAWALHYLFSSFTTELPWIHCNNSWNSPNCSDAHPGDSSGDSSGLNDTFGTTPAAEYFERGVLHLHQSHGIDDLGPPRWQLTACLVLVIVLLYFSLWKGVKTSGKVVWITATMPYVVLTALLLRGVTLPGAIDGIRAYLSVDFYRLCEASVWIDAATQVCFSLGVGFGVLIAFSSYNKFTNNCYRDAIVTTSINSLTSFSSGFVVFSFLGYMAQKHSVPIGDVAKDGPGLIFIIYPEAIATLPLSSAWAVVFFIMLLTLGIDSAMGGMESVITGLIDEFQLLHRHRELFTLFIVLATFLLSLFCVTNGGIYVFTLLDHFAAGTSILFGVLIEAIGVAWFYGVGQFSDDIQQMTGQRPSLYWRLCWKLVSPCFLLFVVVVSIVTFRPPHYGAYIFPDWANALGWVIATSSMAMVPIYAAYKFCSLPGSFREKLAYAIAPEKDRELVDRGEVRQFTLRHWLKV
# Sequence of norepinephrine transporter (hNET) (P23975 whole entry): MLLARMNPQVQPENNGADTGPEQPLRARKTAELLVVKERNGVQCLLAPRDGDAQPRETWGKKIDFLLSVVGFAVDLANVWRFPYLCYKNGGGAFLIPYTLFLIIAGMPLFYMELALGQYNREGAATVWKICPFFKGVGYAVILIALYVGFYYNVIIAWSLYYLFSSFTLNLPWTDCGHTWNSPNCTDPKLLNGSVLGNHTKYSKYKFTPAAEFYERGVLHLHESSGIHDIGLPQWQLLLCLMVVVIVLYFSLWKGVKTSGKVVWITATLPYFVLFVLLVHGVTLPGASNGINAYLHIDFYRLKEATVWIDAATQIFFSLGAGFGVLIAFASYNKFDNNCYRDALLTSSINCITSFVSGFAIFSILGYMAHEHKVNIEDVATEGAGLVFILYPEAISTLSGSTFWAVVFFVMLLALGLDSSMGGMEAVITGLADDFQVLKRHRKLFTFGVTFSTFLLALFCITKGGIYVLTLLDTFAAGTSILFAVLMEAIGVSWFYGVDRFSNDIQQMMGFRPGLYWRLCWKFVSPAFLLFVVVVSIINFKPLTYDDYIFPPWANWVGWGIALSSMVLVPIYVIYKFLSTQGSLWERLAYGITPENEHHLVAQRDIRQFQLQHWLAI
compound,measurement,setting,value
CC(N)CCc1ccccc1Cl (centres unmarked) [SK609],Ki,[1],0.57 ± 0.11 µM
same,Ki,[2],5.7 ± 1.3 µM
